Converted amounts (≈) assume the structure as drawn. *1 amine or outer side, *2 acyl side, *3 side chain or, on linkers, in order; H or OH if unused. Where a SMILES comes first, the peptide text is derived from it. Bridges are numbered along the chain shown (N, C = ends). [ ]: non-standard residue; d: D form. The star is where a group is joined. Phe(3,5-F2) = N[C@@H](Cc1cc(F)cc(F)c1)C(=O)O; NHPh(4-CF3) = FC(F)(F)c1ccc(N*)cc1; Heptenoyl(2E) = CCCC/C=C/C(=O)*; aThr = C[C@H](O)[C@H](N)C(=O)O; Pip = O=C(O)[C@@H]1CCCCN1; CO = O=C([*:1])[*:2]
test system: E. coli K12ΔtolC; experiment: Minimal inhibitory concentration, microbroth dilution; assay type: cell-based; conditions: not given
Outline: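 Following CLSI M7-A7 microbroth dilution, twofold serial dilutions of compound (top final concentration 200 μM) were combined with an equal volume of broth inoculum at about 10^5 cfu/mL. Plates were incubated aerobically at 37 °C overnight, and the MIC was the lowest concentration preventing visible growth.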

Q: `C[C@@H]1C[C@H]2C(=O)OC[C@H](NC(=O)[C@H](Cc3ccccc3)NC(=O)Nc3ccc(Cl)cc3)C(=O)N3CCC[C@H]3C(=O)N3CCCC[C@H]3C(=O)N[C@@H](C)C(=O)N2C1` [Compound 3, (S)-2-(3-(4-Chlorophenyl)Ureido)-N-((2R,6S,8aS,14aS,20S,23aS)-2,6-Dimethyl-5,8,14,19,23-Pentaoxooctadecahydro-1H,5H,14H,19H-Pyrido[2,1-I]Dipyrrolo[2,1-C:2′,1′-L][1]Oxa[4,7,10,13]Tetraazacyclohexadecin-20-Yl)-3-Phenylpropanamide] was tested. Which “Minimal Inhibitory Concentration E. coli K12ΔtolC” value did it give?
A: 25 µM

Q: How did the “Minimal Inhibitory Concentration E. coli K12ΔtolC” value turn out when `C[C@@H]1C[C@H]2C(=O)OC[C@H](NC(=O)[C@H](Cc3ccccc3)NC(=O)Nc3ccc(N(C)C)cc3)C(=O)N3CCC[C@H]3C(=O)N3CCCC[C@H]3C(=O)N[C@@H](C)C(=O)N2C1` [Compound 5, (S)—N-((2R,6S,8aS,14aS,20S,23aS)-2,6-Dimethyl-5,8,14,19,23-Pentaoxooctadecahydro-1H,5H,14H,19H-Pyrido[2,1-1]Dipyrrolo[2,1-C:2′,1′-L][1]Oxa[4,7,10,13]Tetraazacyclohexadecin-20-Yl)-2-(3-(4-(Dimethylamino)Phenyl)Ureido)-3-Phenylpropanamide] was run?
A: 50 µM

Q: With `COc1ccc(NC(=O)N[C@@H](Cc2ccccc2)C(=O)N[C@H]2COC(=O)[C@@H]3C[C@@H](C)CN3C(=O)[C@H](C)NC(=O)[C@@H]3CCCCN3C(=O)[C@@H]3CCCN3C2=O)cc1` [Compound 6, (S)—N-((2R,6S,8aS,14aS,20S,23aS)-2,6-Dimethyl-5,8,14,19,23-Pentaoxooctadecahydro-1H,5H,14H,19H-Pyrido[2,1-1]Dipyrrolo[2,1-C:2′,1′-L][1]Oxa[4,7,10,13]Tetraazacyclohexadecin-20-Yl)-2-(3-(4-Methoxyphenyl)Ureido)-3-Phenylpropanamide] as the compound, how does the “Minimal Inhibitory Concentration E. coli K12ΔtolC” value read?
A: 50 µM

Q: For `C[C@@H]1C[C@H]2C(=O)OC[C@H](NC(=O)[C@H](Cc3ccccc3)NC(=O)Nc3ccccc3Cl)C(=O)N3CCC[C@H]3C(=O)N3CCCC[C@H]3C(=O)N[C@@H](C)C(=O)N2C1` [Compound 7, (S)-2-(3-(2-Chlorophenyl)Ureido)-N-((2R,6S,8aS,14aS,20S,23aS)-2,6-Dimethyl-5,8,14,19,23-Pentaoxooctadecahydro-1H,5H,14H,19H-Pyrido[2,1-I]Dipyrrolo[2,1-C:2′,1′-L][1]Oxa[4,7,10,13]Tetraazacyclohexadecin-20-Yl)-3-Phenylpropanamide], which “Minimal Inhibitory Concentration E. coli K12ΔtolC” value is on record?
A: 200 µM

Q: Which “Minimal Inhibitory Concentration E. coli K12ΔtolC” value does the source give for `C[C@@H]1C[C@H]2C(=O)OC[C@H](NC(=O)[C@H](Cc3ccccc3)NC(=O)Nc3cccc(Cl)c3)C(=O)N3CCC[C@H]3C(=O)N3CCCC[C@H]3C(=O)N[C@@H](C)C(=O)N2C1` [Compound 9, (S)-2-(3-(3-Chlorophenyl)Ureido)-N-((2R,6S,8aS,14aS,20S,23aS)-2,6-Dimethyl-5,8,14,19,23-Pentaoxooctadecahydro-1H,5H,14H,19H-Pyrido[2,1-I]Dipyrrolo[2,1-C:2′,1′-L][1]Oxa[4,7,10,13]Tetraazacyclohexadecin-20-Yl)-3-Phenylpropanamide] here?
A: 25 µM

test system: S. pneumoniae R6; experiment: as above; assay type: cell-based; conditions: Streptococcus pneumoniae, R6, read-out: Minimal Inhibitory Concentration S. pneumoniae R6
Outline: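 Twofold serial dilutions in broth per CLSI M7-A7 microbroth dilution, incubated aerobically overnight at 37° C. MIC read visually as lowest concentration preventing bacterial growth.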

Q: With `Cc1ccc(NC(=O)N[C@@H](Cc2cc(F)cc(F)c2)C(=O)N[C@@H]2C(=O)N3CCC[C@H]3C(=O)N3CCCC[C@H]3C(=O)N[C@@H](C)C(=O)N3CCC[C@H]3C(=O)O[C@H]2C)cc1` [Compound 15, (S)-3-(3,5-Difluorophenyl)-N-((6S,8aS,14aS,20S,21 S,23aS)-6,21-Dimethyl-5,8,14,19,23-Pentaoxooctadecahydro-1H,5H,14H,19H-Pyrido[2,1-I]Dipyrrolo[2,1-C:2′,1′-L][1]Oxa[4,7,10,13]Tetraazacyclohexadecin-20-Yl)-2-(3-(P-Tolyl)Ureido)Propanamide] as the compound, how does the MIC read?
A: 0.3 µM (≈ 0.238 µg/mL)

Q: For `C[C@@H]1NC(=O)[C@@H]2CCCCN2C(=O)[C@@H]2CCCN2C(=O)[C@@H](NC(=O)[C@H](Cc2cc(F)cc(F)c2)NC(=O)Nc2ccc(C(F)(F)F)cc2)[C@H](C)OC(=O)[C@@H]2CCCN2C1=O` [Compound 16, (S)-3-(3,5-Difluorophenyl)-N-((6S,8aS,14aS,20S,21 S,23aS)-6,21-Dimethyl-5,8,14,19,23-Pentaoxooctadecahydro-1H,5H,14H,19H-Pyrido[2,1-I]Dipyrrolo[2,1-C:2′,1′-L][1]Oxa[4,7,10,13]Tetraazacyclohexadecin-20-Yl)-2-(3-(4-(Trifluoromethyl)Phenyl)Ureido)Propanamide] ({NHPh(4-CF3)-CO}-[Phe(3,5-F2)][aThr]P[Pip]AP; ester 2-C), which MIC is on record?
A: 0.8 µM (≈ 0.678 µg/mL)

Q: `Cc1ccc(NC(=O)N[C@@H](Cc2cc(F)cc(F)c2)C(=O)N[C@@H]2C(=O)N3CCC[C@H]3C(=O)N3CCCC[C@H]3C(=O)N[C@@H](C)C(=O)N3C[C@@H](C)C[C@H]3C(=O)O[C@H]2C)cc1` [Compound 18, (S)-3-(3,5-Difluorophenyl)-2-(3-(P-Tolyl)Ureido)-N-((2R,6S,8aS,14aS,20S,21S,23aS)-2,6,21-Trimethyl-5,8,14,19,23-Pentaoxooctadecahydro-1H,5H,14H,19H-Pyrido[2,1-I]Dipyrrolo[2,1-C:2′,1′-L][1]Oxa[4,7,10,13]Tetraazacyclohexadecin-20-Yl)Propanamide] was tested. Which MIC did it give?
A: < 0.1 µM

Q: For `C[C@H]1C[C@H]2C(=O)O[C@@H](C)[C@H](NC(=O)[C@H](Cc3cc(F)cc(F)c3)NC(=O)Nc3ccc(C(F)(F)F)cc3)C(=O)N3CCC[C@H]3C(=O)N3CCCC[C@H]3C(=O)N[C@@H](C)C(=O)N2C1` [Compound 19, (S)-3-(3,5-Difluorophenyl)-2-(3-(4-(Trifluoromethyl)Phenyl)Ureido)-N-((2R,6S,8aS,14aS,20S,21S,23aS)-2,6,21-Trimethyl-5,8,14,19,23-Pentaoxooctadecahydro-1H,5H,14H,19H-Pyrido[2,1-I]Dipyrrolo[2,1-C:2′,1′-L][1]Oxa[4,7,10,13]Tetraazacyclohexadecin-20-Yl)Propanamide], which MIC is on record?
A: 0.8 µM (≈ 0.689 µg/mL)

Q: Which MIC does the source give for `Cc1ccc(NC(=O)N[C@@H](Cc2ccccc2)C(=O)N[C@H]2COC(=O)[C@@H]3C[C@@H](C)CN3C(=O)[C@H](C)NC(=O)[C@@H]3CCCCN3C(=O)[C@@H]3CCCN3C2=O)cc1` [Compound 23, (S)—N-((2R,6S,8aS,14aS,20S,23aS)-2,6-Dimethyl-5,8,14,19,23-Pentaoxooctadecahydro-1H,5H,14H,19H-Pyrido[2,1-I]Dipyrrolo[2,1-C:2′,1′-L][1]Oxa[4,7,10,13]Tetraazacyclohexadecin-20-Yl)-3-Phenyl-2-(3-(P-Tolyl)Ureido)Propanamide] here?
A: < 0.2 µM

same assay, conditions: Streptococcus pneumoniae, R6; read-out: Minimal Inhibitory Concentration S. pneumoniae R6

Q: Which MIC does the source give for `CCCC/C=C/C(=O)N[C@@H](Cc1cc(F)cc(F)c1)C(=O)N[C@@H]1C(=O)N2CCC[C@H]2C(=O)N2CCCC[C@H]2C(=O)N[C@@H](C)C(=O)N2CCC[C@H]2C(=O)O[C@H]1C` [ADEP 2719, reference compound] ({Heptenoyl(2E)}-[Phe(3,5-F2)][aThr]P[Pip]AP; ester 2-C) here?
A: < 0.2 µM

Q: With `C[C@@H]1NC(=O)[C@@H]2CCCCN2C(=O)[C@@H]2CCCN2C(=O)[C@@H](NC(=O)[C@H](Cc2cc(F)cc(F)c2)NC(=O)Nc2ccc3c(c2)OCO3)[C@H](C)OC(=O)[C@@H]2CCCN2C1=O` [Compound 17, (S)-2-(3-(Benzo[D][1,3]Dioxol-5-Yl)Ureido)-3-(3,5-Difluorophenyl)-N-((6S,8aS,14aS,20S,21 S,23aS)-6,21-Dimethyl-5,8,14,19,23-Pentaoxooctadecahydro-1H,5H,14H,19H-Pyrido[2,1-I]Dipyrrolo[2,1-C:2′,1′-L][1]Oxa[4,7,10,13]Tetraazacyclohexadecin-20-Yl)Propanamide] as the compound, how does the MIC read?
A: 0.8 µM (≈ 0.659 µg/mL)

Q: `C[C@H]1C[C@H]2C(=O)O[C@@H](C)[C@H](NC(=O)[C@H](Cc3cc(F)cc(F)c3)NC(=O)Nc3ccc4c(c3)OCO4)C(=O)N3CCC[C@H]3C(=O)N3CCCC[C@H]3C(=O)N[C@@H](C)C(=O)N2C1` [Compound 20, (S)-2-(3-(Benzo[D][1,3]Dioxol-5-Yl)Ureido)-3-(3,5-Difluorophenyl)-N-((2R,6S,8aS,14aS,20S,21 S,23aS)-2,6,21-Trimethyl-5,8,14,19,23-Pentaoxooctadecahydro-1H,5H,14H,19H-Pyrido[2,1-I]Dipyrrolo[2,1-C:2′,1′-L][1]Oxa[4,7,10,13]Tetraazacyclohexadecin-20-Yl)Propanamide] was tested. Which MIC did it give?
A: < 0.1 µM

Reference: US9879050B2, “Substituted urea depsipeptide analogs as activators of the CLPP endopeptidase” (priority 2013, dated 2018)
